According to publication PMC8066331, “Anticancer Activity of Triazolo-Thiadiazole Derivatives and Inhibition of AKT1 and AKT2 Activation” (Pharmaceutics, 2021):

Columns and labels:
Akt1 phosphorylation = assay: Detection of Akt1 phosphorylation by intracellular flow cytometry; format: cell-based, human; conditions: for decrease of Akt1 phospho-form: HT-29 cells; for phosphorylation of Akt1: GI50 and TGI concentrations
Description: (§1) To investigate whether KA25 and KA39 triazolo[3,4-b]thiadiazole derivatives inhibit the phosphorylation of Akt1 and Akt2 isoforms, three colorectal cancer cell lines including HT-29, LoVo, and SW403 were intracellularly stained upon treatment with the two referred compounds. Firstly, cells were seeded into a 6-well plate at a density of 7 × 10^5 cells/well and maintained at 37 °C in a […]. After 24 h of cell growth, the culture medium was discarded and replaced with 2 mL of fresh medium. […] The required GI50 and TGI concentrations (μΜ) of the KA25 and KA39 derivatives in HT-29 and LoVo cells have been determined in previous studies. To estimate the TGI concentration (μΜ) of the KA25 compound in SW403 cells, further MTT assays were carried out as previously described. Following drug exposure at the mentioned treatment conditions, the cells were collected after being washed with ice-cold PBS (pH = 7.4) and detached enzymatically with standard trypsinization. Two centrifugations were followed at 1500 rpm for 5 min, including two washing steps with 2 mL of cell staining buffer (BioLegend, San Diego, CA, USA). Cell pellets were fixed with 500 μL of pre-warmed fixation buffer (BioLegend, San Diego, CA, USA) and incubated at 37 °C for 15 min. Afterwards, one centrifugation was carried out at 1000 rpm for 5 min, followed by supernatant discard and resuspension of cell pellet through vortex. Then, the cells were washed with 2 mL of cell staining buffer twice, including two centrifugations at 1000 rpm for 5 min at room temperature. After the cell pellet was resuspended with gentle pipetting, cells were permeabilized by adding 1000 μL of pre-chilled True-Phos Permeabilization buffer (BioLegend, San Diego, CA, USA) while vortexing. Following overnight incubation at −20 °C, the cells were centrifuged at 2000 rpm for 5 min and the supernatant was discarded. After the cell pellet was resuspended by vortexing, two centrifugations were performed at 2000 rpm for 5 min including two washes with 2 mL of cell staining buffer. The cell pellet was resuspended with 200 μL of cell staining buffer, and equal volumes were transferred into the appropriate tubes. To detect total Akt1 and Akt2, 2 μL of purified anti-Akt1 and anti-Akt2 (BioLegend, San Diego, CA, USA) was added, respectively. Additionally, 2 μL of purified anti-Akt phospho(Ser473) (BioLegend, San Diego, CA, USA) was added for the detection of either phosphorylated AKT1 or AKT2. Furthermore, a cocktail of isotype controls (5 μL of purified mouse IgG1, 5 μL of purified mouse IgG2b, and 1 μL of purified rabbit polyclonal isotype control antibody) was used to differentiate nonspecific background signals from specific antibody signals. The cells were incubated for 30 min at room temperature in the dark and then stained with 5 μL of phycoerythrin (PE) donkey anti-rabbit IgG and 2 μL of Alexa Fluor 488 Goat anti mouse IgG (BioLegend, San Diego, CA, USA). After 15 min of incubation in the dark, the cells were resuspended with 1000 μL of cell staining buffer and analyzed in the flow cytometer (CyFlow®, SL, Partec, GmbH, Muenster, Germany). Flow cytometric analysis was carried out in triplicate and performed by Partec Flomax software.
(§2) The inhibitory impact of the two triazolo[3,4-b]thiadiazole derivatives KA25 and KA39 on the phosphorylation of either Akt1 (p-Akt1) or Akt2 (p-Akt2) was determined by the following formulas: p-Akt1(%) or p-Akt2 (%) = [(mean-xtreated − isotypetreated)]/[(mean-xuntreated − isotypeuntreated)] × 100, where the isotype value is subtracted from the mean-x value of the corresponding condition, including treated and untreated cells. As the formulas indicate, the difference in value of treated cells is divided by the difference in value of untreated cells (control group) to estimate the extent of inhibition. […]

Akt2 phosphorylation = assay: Detection of Akt2 phosphorylation by intracellular flow cytometry; format: cell-based, human; conditions: for decrease of Akt2 phospho-form: HT-29 cells; for phosphorylation of Akt2: GI50 and TGI concentrations
Description: as §1, §2

[1] = GI50 concentration (KA39 11.5 μΜ, KA25 1 μΜ), 3 h
[2] = GI50 concentration (KA39 11.5 μΜ, KA25 1 μΜ), 24 h
[3] = TGI concentration (KA39 15.9 μΜ, KA25 120 μΜ), 3 h
[4] = TGI concentration (KA39 15.9 μΜ, KA25 120 μΜ), 24 h
[5] = LoVo cells, 3 and 24 h (Figure S47)
[6] = SW403 cells, 3 and 24 h (Figure S48)

Compound: COc1cc(Cc2nnc3sc(-c4cc([N+](=O)[O-])ccc4[N+](=O)[O-])nn23)c(S(=O)(=O)N(C)C)cc1OC [KA39]
- decrease of Akt1 phospho-form (Akt1 phosphorylation; [1]): 73.66%
- decrease of Akt1 phospho-form (Akt1 phosphorylation; [2]): 75.71%
- decrease of Akt1 phospho-form (Akt1 phosphorylation; [3]): 72.9%
- decrease of Akt1 phospho-form (Akt1 phosphorylation; [4]): 88.5%
- phosphorylation of Akt1 (Akt1 phosphorylation; [5]): significantly inhibited
- phosphorylation of Akt1 (Akt1 phosphorylation; [6]): significantly inhibited
- decrease of Akt2 phospho-form (Akt2 phosphorylation; [1]): 60.76%
- decrease of Akt2 phospho-form (Akt2 phosphorylation; [2]): 83.55%
- decrease of Akt2 phospho-form (Akt2 phosphorylation; [3]): 58.87%
- decrease of Akt2 phospho-form (Akt2 phosphorylation; [4]): 86%
- phosphorylation of Akt2 (Akt2 phosphorylation; [5]): significantly inhibited
- phosphorylation of Akt2 (Akt2 phosphorylation; [6]): significantly inhibited

Compound: COc1cc(Cc2nnc3sc(C=Cc4ccc(F)cc4)nn23)c(S(=O)(=O)N(C)C)cc1OC [KA25]
- decrease of Akt1 phospho-form (Akt1 phosphorylation; [1]): 83.38%
- decrease of Akt1 phospho-form (Akt1 phosphorylation; [2]): 79.8%
- decrease of Akt1 phospho-form (Akt1 phosphorylation; [3]): 86.45%
- decrease of Akt1 phospho-form (Akt1 phosphorylation; [4]): 87.73%
- phosphorylation of Akt1 (Akt1 phosphorylation; [5]): significantly inhibited
- phosphorylation of Akt1 (Akt1 phosphorylation; [6]): significantly inhibited
- decrease of Akt2 phospho-form (Akt2 phosphorylation; [1]): 73.74%
- decrease of Akt2 phospho-form (Akt2 phosphorylation; [2]): 76.9%
- decrease of Akt2 phospho-form (Akt2 phosphorylation; [3]): 82.6%
- decrease of Akt2 phospho-form (Akt2 phosphorylation; [4]): 86.4%
- phosphorylation of Akt2 (Akt2 phosphorylation; [5]): significantly inhibited
- phosphorylation of Akt2 (Akt2 phosphorylation; [6]): significantly inhibited
